Assay results as given in patent publication US6610670B2, “Cyclodextrin-drospirenone inclusion complexes” (Schering Aktiengesellschaft, priority 2000, dated 2003).

Test: Phase solubility diagram technique (PSD) in aqueous solutions at 20° C.
Type: physicochemical
Conditions: water, thermodynamic from solid, aqueous solution
Method: The following data were obtained with the phase solubility diagram technique (PSD) In aqueous solutions at 20° C. The stability constants of the inclusion compound from β-CD and drospirenone are given.

solubility: 41.4 µM | solubility (value in parentheses): 15.1 µg/mL
Structure (SMILES): C[C@]12CCC(=O)C=C1[C@@H]1C[C@@H]1[C@H]1[C@@H]3[C@@H]4C[C@@H]4[C@@]4(CCC(=O)O4)[C@@]3(C)CC[C@@H]12 [Drospirenone, 6β,7β;15β,16β-dimethylene-3-oxo-17α-pregn-4-ene-21,17-carbolactone]
